US20220249622A1, “METHOD FOR PROTECTING BRAIN NEURON CELLS WITH BIOACTIVE COMPOUND” (TCI CO., LTD., priority 2021, published 2022)

Legend:
[1] = tested on: mouse brain neuroblastoma cells Nero2a; assay: Activity of mitochondria of neuron cells (JC-1 mitochondrial membrane potential assay, flow cytometer); format: cell-based; conditions: 24 hours, control group = 100%
From the text: 1. Cell strain: mouse brain neuroblastoma. cells Nero2a, from the American Type
Culture Collection (ATCC®, Cat. CCL-131), hereinafter referred to as Nero2a cells.
2. Culture medium: Dulbecco's modified Eagle's medium (DMEM, purchased from Gibco, Cat. 11965-092) containing 10 vol % of Fetal Bovine Serum (FBS, purchased from Gibco, 10437-028) and 3.7 g/L of sodium bicarbonate (purchased from Sigma, S5761-500G).
4. Mitochondrial n embranepotential assay kit (MitoScreen (.IC-1) kit purchased from BD, model 551302): with ,IC-1 dye (lyophilized) and 10× assay buffer. Before use, the assay buffer was diluted 10-fold with 1 PBS solution to form 1× assay buffer, 130 μl of dimethyl sulfoxide (DMSO) was added into the JC-1 dye (lyophilized) to form a JC-1 stock solution. Then, the stock solution was diluted to 1/100 with the 1 × assay buffer to form a JC-1 working reagent
6. Flow cytometer: purchased from BD Pharmingen, model BDTM Accuri C6 Plus.
The Nero2a cells were seeded into a 6-well culture plate at a density of […] cells per well, and 2 ml., of the above-mentioned fresh culture medium was added to each well and incubated for 24 hours at 37° C. and 5% CO2.
Remove the culture medium from each well. The Nero2a cells were divided into a control group and experimental groups 1-5. Control group was added with the fresh culture medium. Experimental group I was added with fresh culture medium containing 50 μg/mL synthesized peptide of SEQ .117 NO :1; experimental group 2 was added with fresh culture medium containing 50 μg/mL synthesized peptide of SEQ ID NO:2; experimental group 3 was added with fresh culture medium containing 50 μg/mL synthesized peptide of SEQ ID NO 3, experimental group 4 was added with fresh culture medium containing 25 μg/mL synthesized peptide of SEQ ID NO:4; and experimental group 5 was added with fresh culture medium containing 1 mg/mL of catfish skin collagen peptide powder from Example. 1. Each group was triplicated and incubated at 37C. for 24 hours.
In each group, the culture medium was removed, and then the cells were washed twice with the PBS solution. Then, 200 μL of trypsin solution was added to react with the cells for 3 min, and 6 mL of fresh culture medium was added to stop the reaction. […]
The cell solution of the control group and the cell solution of each experimental group were analyzed for the activity of mitochondria by using a flow cytometer.
Standard deviations were calculated by an STDEV formula of Excel software, and whether statistically significant differences existed or not was analyzed by one-tail student t-test in the Excel software. […] The p value of each group was calculated compared to the control group. […]

[2] = tested on: human brain neurons SH-SYSY; assay: Inhibitory effect on brain neuron damage caused by MPP+ (MTT cell viability); format: cell-based; conditions: 5 μM MPP+ alone (control group), 48 hours
Protocol: The cells, culture medium, MTT apoptosis detection solution, ELISA reader, and statistical method of cell viability used in this example are the same as in Example 5, and details are not described herein again.
The SII-SYSY cells were seeded at a density of 5×10^3 cells per well into a 96-well culture plate and incubated for 24 hours at 37° C. and 5% CO2.
The culture medium was removed from each well. The SH-SYSY cells were divided into a blank group, a control group, and an experimental group. The fresh culture medium was added into the wells of the blank group. The fresh culture medium containing 5 μM MPP+ was added into the wells of the control group. The fresh culture medium containing 5 μM MPP+ and 1 mg/mL catfish skin collagen peptide powder from Example 1 was added into the wells of the experimental group. Each group was triplicated and incubated at 37° C. for 48 hours.
Then, 15 μL of 5 MTT apoptosis detection solution was added to each group for 3-4 h at 37° C. and 5% CO2.
The culture medium in each well was removed. In each group, 50 μL of DMSO was added to dissolve the purple crystals of formazan. Finally, an absorbance (at 570 nm) of each group was measured by an ELISA reader to analyze the cell viability of each group.
Taking the value of the blank group as 100% of cell viability, each value of the control group and the experimental group was converted into cell viability (%).

Compound	relative accumulation of JC-1 ([1]; 50 μg/mL synthesized peptide)	also measured
GRGGFGGRGGFG (listed as Pangasius bocourti) [SEQ ID NO: 3, synthesized peptide, peptide fragment of nucleolin from catfish skin]	120.95%	–
TAELEPLTDG (listed as Pangasius bocourti) [SEQ ID NO: 2, synthesized peptide, peptide fragment of NAD synthetase 1 from catfish skin]	150,17%	–
C[n+]1ccc(-c2ccccc2)cc1 [MPP+, 1-methyl-4-phenylpyridin-1-ium]	–	cell viability ([2]; SH-SYSY cells, blank group = 100%): 86%; cell viability reduced by ([2]; vs blank group): 14%
NGTGPQNH (listed as Pangasius bocourti) [SEQ ID NO: 1]	146.90%	–
LVMGFHPQYL (listed as Pangasius bocourti) [SEQ ID NO: 4, synthesized peptide, peptide fragment of sestrin 1 from catfish skin]	–	relative accumulation of JC-1 ([1]; 25 μg/mL synthesized peptide): 115.74%
